Test results from publication PMC7229567, “Comparative Pharmacokinetics of Geniposidic Acid, Genipin-1-β-Gentiobioside, Geniposide, Genipin, and Crocetin in Rats after Oral Administration of Crude Gardeniae Fructus and Its Three Processed Products Using LC-MS/MS” (Evidence-based Complementary and Alternative Medicine : eCAM, 2020).
Read-outs that look alike come from different tables or passages of the source.

Key:
[1] = Pharmacokinetics in rat plasma after oral administration of CGF, SGF, GCGF and GIGF extracts (LC-MS/MS); details: for Cmax / half-life / Tmax: male, Sprague-Dawley, rat, plasma, po, 0.75 mL/kg; for Cmax: C max; for Cmax / Tmax / C max / T 1/2 / T max / AUC(0–t24) ratio relative to CGF: rat plasma; for Cmax / half-life / Tmax / C max / T 1/2 / T max: n = 6, mean ± SD; for half-life: T 1/2, rat plasma; for Tmax: T max; for AUC(0–t24) ratio relative to CGF: oral
From the text: (§1) The LC-ESI-MS/MS system is composed of an Agilent 1200 series LC system (Agilent Technologies, USA) including a binary pump, a vacuum degasser unit, an autosampler, and an API 3200 triple quadrupole mass Spectrometer with an ESI source (Concord, Ontario, Canada). Data was acquired by Analyst 1.4.2 software (AB MDS Sciex).
(§2) The Agilent Eclipse plus C18 (4.6 × 100 mm, 1.8 μm) column with a guard column was used to separate multiple ingredients. The mobile phases were methanol (A) and water (B) with a gradient elution of 3–36% A at 0–3 min, 36–36% A at 3–15 min, 36–97% A at 15–16 min, and 97–97% A at 16–26 min, then back from 97% to 3% balanced for 10 min. The flow rate was set at 0.3 mL/min and the column temperature was set at 30°C. The injection volume was 5 μL.
(§3) The detection was operated in Multiple Reaction Monitoring (MRM) mode. The source parameters were as follows: curtain gas, collision gas, ion spray voltage, temperature, ion source gas 1, and ion source gas 2 were set at 20 psi, 5 psi, 5500 V, 450°C, 40 psi, and 40 psi, respectively. Nitrogen was the only gas used in the experiment.
(§4) A total of 24 male Sprague-Dawley rats (weight: 220–250 g) were obtained from animal center of Tianjin University of Traditional Chinese Medicine (Tianjin, China). Those rats were randomly divided into four groups (CGF, SGF, GCGF, and GIGF groups) and were housed in an environmentally controlled room (temperature 20–25°C, humidity 60 ± 5%). The rats were allowed free accessibility to food and water in the first week. They were fasted for 12 h before the experiment with water taken freely. The animal experiments were according to the Guidelines for the Care and Use of Laboratory Animals and were approved by the Animal Ethics Committee of Tianjin University of Traditional Chinese Medicine. The rats were randomly divided into four groups. Six rats in each group were separately given single dose of 0.75 mL/kg (0.9 g·kg herbal medicine) extract solution of four kinds of GFs vial oral administration. Blood samples (about 300 μL) were collected at 0, 0.08, 0.25, 0.5, 1, 2, 4, 6, 8, 10, 12, 14, and 24 h. The blood samples were collected in heparinized tubes and immediately centrifuged at 6000 rpm for 10 min at 4°C. The plasma samples were stored at −80°C until analysis.
(§5) The plasma sample (100 μL) was spiked with 20 μL IS working solution and 10 μL formic acid in an Eppendorf tube. Samples were vortex for 30 s, and then 1 mL acetonitrile was added to precipitate protein. Then samples were vortexed for 2 min and the tubes were centrifuged at 14000 rpm for 10 min. The upper organic phase was transferred into a new tube and evaporated to dryness under a flow of nitrogen gas. The residue was reconstituted with 50% methanol 100 μL. After centrifuging at 14000 rpm for 10 min, the supernatant was transferred into an autosampler vial and a volume of 5 μL was injected into the HPLC-ESI-MS/MS for analysis.
(§6) The pharmacokinetic parameters were calculated using a Drug and Statistics 1.0 (DAS 1.0) software (Medical College of Wannan, China). The pharmacokinetic parameters included time of maximum concentration (Tmax), maximum plasma concentration (Cmax), elimination half-life (T1/2), and area under concentrations curve (AUC0–t and AUC0–∞). All values were expressed as mean ± SD. A paired t test was used to test the difference among these groups.

[2] = Stability of the analytes in rat plasma QC samples under storage conditions; type: in vitro ADME; details: for Freeze-thaw cycles Remain: three freeze-thaw cycles
Method: Quality control (QC) samples containing geniposidic acid, geniposide, genipin-1-β-gentiobioside, genipin, and crocetin were prepared at LLOQ (10 ng/mL), low (30 ng/mL), medium (300 ng/mL), and high concentrations (3000 ng/mL), spiking with appropriate standard solutions with blank plasma to establish calibration curve and method validation. The samples were prepared by the same procedures for plasma samples as described below. The stability of 5 components in the plasma was obtained by evaluating QC samples at four concentration levels with three replicates in different conditions. The QC samples were kept at room temperature for 12 h to determine the short-term stability. Freeze-thaws stability was tested after three freeze-thaw (−80°C at room temperature) on three consecutive days. Long-term stability was tested by evaluating QC samples stored at −80°C for one month. The stability of the five components in rat plasma was determined by evaluating QC samples stored at different temperature and timing conditions. All the components were stable in the autosampler for 24 h, after three freeze-thaw cycles and at a month at −80°C.

[3] = in vivo, po
From the text: as §1, §2, §3, §4, §5, §6

[4] = single oral dose of CGF extract 0.75 mL/kg
[5] = single oral dose of GCGF extract 0.75 mL/kg
[6] = single oral dose of GIGF extract 0.75 mL/kg
[7] = single oral dose of SGF extract 0.75 mL/kg

Cmax [1, 4] [ng/mL]	Cmax [1, 5] [ng/mL]	Cmax [1, 7] [ng/mL]	half-life [1, 4] [h]	half-life [1, 7] [h]	Tmax [1, 4] [h]	Tmax [1, 5] [h]	Tmax [1, 7] [h]	At −80°C for a month Remain ([2]; 10 ng/mL) [%]	Autosampler for 24 h Remain ([2]; 10 ng/mL) [%]	Freeze-thaw cycles Remain ([2]; 10 ng/mL) [%]	At −80°C for a month Remain ([2]; 30 ng/mL) [%]	Autosampler for 24 h Remain ([2]; 30 ng/mL) [%]	Freeze-thaw cycles Remain ([2]; 30 ng/mL) [%]	At −80°C for a month Remain ([2]; 300 ng/mL) [%]	Autosampler for 24 h Remain ([2]; 300 ng/mL) [%]	Freeze-thaw cycles Remain ([2]; 300 ng/mL) [%]	At −80°C for a month Remain ([2]; 3000 ng/mL) [%]	Autosampler for 24 h Remain ([2]; 3000 ng/mL) [%]	Freeze-thaw cycles Remain ([2]; 3000 ng/mL) [%]	SMILES	other results
165 ± 52.9	163 ± 76.4	153 ± 81.9	41.6 ± 57.6	56.2 ± 43	7.3 ± 3.93	6.43 ± 5.02	6.61 ± 4.05	98.4	97.9	102	101	99.9	95.3	105	96.3	98.6	103	98.9	106	CC(/C=C/C=C(\C)C(=O)O)=C\C=C\C=C(C)\C=C\C=C(/C)C(=O)O [Crocetin]	Cmax [1, 6]: 91.2 ± 35.6 ng/mL; half-life [1, 5]: 12.8 ± 6.64 h; half-life [1, 6]: 31.8 ± 29.3 h; Tmax [1, 6]: 1.29 ± 2.31 h
–	–	–	–	–	–	–	–	95.8	99.3	104	96.3	100	105	95.1	101	101	95.1	90.7	103	COC(=O)C1=CO[C@@H](O[C@@H]2O[C@H](CO[C@@H]3O[C@H](CO)[C@@H](O)[C@H](O)[C@H]3O)[C@@H](O)[C@H](O)[C@H]2O)[C@@H]2C(CO)=CC[C@H]12 [Genipin-1-β-gentiobioside]	C max [1, 4]: 149.90 ± 132.07 ng/mL; T 1/2 [1, 4]: 0.72 ± 0.25 h; T max [1, 4]: 0.55 ± 0.33 h; C max [1, 5]: 102.92 ± 58.15 ng/mL; T 1/2 [1, 5]: 0.78 ± 0.32 h; T max [1, 5]: 0.78 ± 0.20 h; C max [1, 6]: 62.94 ± 16.81 ng/mL; T 1/2 [1, 6]: 0.91 ± 0.36 h; T max [1, 6]: 1.05 ± 0.37^∗# h; C max [1, 7]: 79.08 ± 39.47 ng/mL; T 1/2 [1, 7]: 0.61 ± 0.18 h; T max [1, 7]: 0.61 ± 0.31 h
76.4 ± 40.9	68.5 ± 19.4	98 ± 41.8	3.42 ± 1.94	1.39 ± 0.88	1.11 ± 0.4	1.1 ± 0.52	1 ± 0.55	108	95.4	–	103	104	95.3	105	90.6	95.9	101	92.6	100	COC(=O)C1=CO[C@@H](O)[C@@H]2C(CO)=CC[C@H]12 [Genipin]	Detection in rat plasma ([1]; after administration of the GIGF extract, LLOQ 10 ng/mL): not detected; half-life [1, 5]: 1.39 ± 0.98 h
1020 ± 450	670 ± 432	398 ± 108	2.52 ± 0.64	2.93 ± 3.45	3.33 ± 1.63	3.33 ± 3.43	1.78 ± 0.44	107	94.7	96.3	98.0	96.4	101	106	96.4	107	99.9	96.7	108	O=C(O)C1=CO[C@@H](O[C@@H]2O[C@H](CO)[C@@H](O)[C@H](O)[C@H]2O)[C@@H]2C(CO)=CC[C@H]12 [Geniposidic acid]	AUC(0–t24) ratio relative to CGF ([1]; GCGF vs CGF (CGF = 1)): 0.39; AUC(0–t24) ratio relative to CGF ([1]; GIGF vs CGF (CGF = 1)): 0.15; AUC(0–t24) ratio relative to CGF ([1]; SGF vs CGF (CGF = 1)): 0.22; Cmax [1, 6]: 272 ± 164 ng/mL; half-life [1, 5]: 1.72 ± 0.69 h; half-life [1, 6]: 1.5 ± 0.42 h; Tmax [1, 6]: 2.4 ± 1.26 h
–	–	–	–	–	–	–	–	–	–	–	–	–	–	–	–	–	–	–	–	CC(/C=C/C=C(\C)C(=O)O[C@@H]1O[C@H](CO)[C@@H](O)[C@H](O)[C@H]1O)=C\C=C\C=C(C)\C=C\C=C(/C)C(=O)O[C@@H]1O[C@H](CO[C@@H]2O[C@H](CO)[C@@H](O)[C@H](O)[C@H]2O)[C@@H](O)[C@H](O)[C@H]1O [crocin II]	Detection in rat plasma ([1]; plasma samples after oral administration of GF extracts): not detected
–	–	–	–	–	–	–	–	–	–	–	–	–	–	–	–	–	–	–	–	CC(/C=C/C=C(\C)C(=O)O[C@@H]1O[C@H](CO[C@@H]2O[C@H](CO)[C@@H](O)[C@H](O)[C@H]2O)[C@@H](O)[C@H](O)[C@H]1O)=C\C=C\C=C(C)\C=C\C=C(/C)C(=O)O[C@@H]1O[C@H](CO[C@@H]2O[C@H](CO)[C@@H](O)[C@H](O)[C@H]2O)[C@@H](O)[C@H](O)[C@H]1O [crocin I]	Detection in rat plasma [3]: not detected

SMILES	Cmax [1, 4] [ng/mL]	Cmax [1, 5] [ng/mL]	Cmax [1, 7] [ng/mL]	half-life [1, 4] [h]	half-life [1, 7] [h]	Tmax [1, 4] [h]	Tmax [1, 5] [h]	Tmax [1, 7] [h]	At −80°C for a month Remain ([2]; 10 ng/mL) [%]	Autosampler for 24 h Remain ([2]; 10 ng/mL) [%]	Freeze-thaw cycles Remain ([2]; 10 ng/mL) [%]	At −80°C for a month Remain ([2]; 30 ng/mL) [%]	Autosampler for 24 h Remain ([2]; 30 ng/mL) [%]	Freeze-thaw cycles Remain ([2]; 30 ng/mL) [%]	At −80°C for a month Remain ([2]; 300 ng/mL) [%]	Autosampler for 24 h Remain ([2]; 300 ng/mL) [%]	Freeze-thaw cycles Remain ([2]; 300 ng/mL) [%]	At −80°C for a month Remain ([2]; 3000 ng/mL) [%]	Autosampler for 24 h Remain ([2]; 3000 ng/mL) [%]	Freeze-thaw cycles Remain ([2]; 3000 ng/mL) [%]	other results
COC(=O)C1=CO[C@@H](O[C@@H]2O[C@H](CO)[C@@H](O)[C@H](O)[C@H]2O)[C@@H]2C(CO)=CC[C@H]12 [Geniposide]	1070 ± 598	581 ± 241	455 ± 160	3.21 ± 2.31	1.61 ± 0.63	1.54 ± 1.3	0.86 ± 0.13	0.89 ± 0.72	99.2	102	97.5	98.4	95.1	92.8	94.8	96.3	93.1	92.8	91.6	95.0	Cmax [1, 6]: 212 ± 109 ng/mL; half-life [1, 6]: 1.08 ± 0.45 h; Tmax [1, 6]: 1.3 ± 0.48 h; T 1/2 [1, 5]: 1.44 ± 0.53^∗ h
